Reference: patent publication US20250136722A1, “CYTOTOXICITY TARGETING CHIMERAS” (GLAXOSMITHKLINE INTELLECTUAL PROPERTY DEVELOPMENT LIMITED, priority 2021, published 2025)
Values joined by “and” are separate entries in the source; they are usually repeats but may differ in a detail not shown here. Equal entries are not always repeated.

Assays:
[1] = target: T1, CHOK1 cells engineered to overexpress human CCR2 (Homo sapiens, UniProt P41597); assay: Antibody dependent cellular cytotoxicity (ADCC) reporter assay (Example 199); assay type: cell-based; settings: with anti-cotinine antibody SEQ ID NO: 11/12, CHOK1-human CCR2 target cells, Jurkat FcγRIIIa NFAT-luciferase reporter cells, 12-18 hours; for EC50: read-out: ADCC Reporter Assay pEC50 (converted)
T1 construct: expressed in transfected cells; host or cells: CHOK1 cells
Method in brief: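 Potency is reported as pEC50 from a nonlinear fit, averaged over runs, using luciferase signal divided by that of compound-free wells. The readout comes from NFAT-luciferase Jurkat cells expressing FcγRIIIa, mixed for 12–18 h with human CCR2-overexpressing CHOK1 cells, 1 pM–10 μM ARM compound and 0.01–200 μg/mL Fc-enhanced anti-cotinine IgG1.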

[2] = target: human alpha1 nicotinic acetylcholine (nACh) receptor (Homo sapiens, UniProt P02708+Q07001); assay: Nicotinic acetylcholine receptor antagonism assay, IONFlux automated patch clamp (Example 203); assay type: cell-based; settings: for Emax at 100 µM: maximum percentage antagonism at maximum concentration tested 100 μM; for IC50: nAChR antagonism, ACh stimulated, patch clamp
Protocol: Cells expressing human alpha1 nicotinic acetylcholine (nACh) receptor (nAChR) were washed and dissociated using Trypsin containing buffer. Cells were then washed and seeded at a density of 3-5 million cells/mL and allowed to grow for 3 days. Then, 60-80 μL of cells were added to plates and incubated with dose response of an ARM compound of Formula (I) with a top concentration of either 10 μM or 100 μM. The receptor was then stimulated via addition of acetylcholine (ACh) and activation of the receptor was monitored via the IONFlux automated patch clamp system. IonFlux Data Analyzer software was utilized to perform leak subtraction and measure (min) peak current amplitude.
Data processing: (1) Current values recorded for vehicle only applications in individual traps/patterns were subtracted from corresponding current amplitude values for control, test article and control+test article. (2) Control response was calculated as % of the average response of the 3rd out of total 3 ACh (10 mM) applications alone. In rare situations, if the 3rd ACh response was obscured due to technical artifacts, the 2nd and/or 1 st ACh (10 mM) application was considered as control. The peak current amplitude generated in the presence of each test article concentration was then used to calculate the % inhibition as compared to control response (10 mM ACh alone). These estimates were further corrected for vehicle response and run down corrected by normalizing with time matched control responses (10 mM ACh alone). The corrected percentages were then fit with a non-linear function in GraphPad Prism 6 (or later versions) to determine the […].
Exclusion criteria: (i) any n's with poor recording quality, (ii) control current amplitude <500 pA or (iii) significant outliers, as determined by the Grubbs' test.
ARMs compounds of Formula (I) of the invention were tested for antagonism of the nAChR in the above assay in […] experimental runs and the results are shown in Table 7 below. Antagonistic activity of the compounds of Formula (I) of the invention is reported as an IC50 value (half maximal inhibitory concentration) and the maximum percentage antagonism observed at the highest concentration of compound of Formula (I) tested, as indicated in Table 7. For compounds tested in more than one experimental run, the IC50 value is reported as an average.

[3] = target: Anti-cotinine antibody (SEQ ID NO: 11 / SEQ ID NO: 12, rabbit variable region with human IgG1 Fc domain); assay: Binding of anti-cotinine antibody to ARM compounds by SPR, Biacore T200, 37° C. (Example 202); settings: pH 7.4, rabbit variable region/human IgG1 Fc antibody captured on protein A
Method in brief: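 Run at 37° C. in 10 mM HEPES pH 7.4, 150 mM NaCl, 0.005% P20, 1% DMSO. Compound titrated from 200 nM (five 3-fold steps) over protein A-captured antibody, with 200/2000 s association/dissociation. 1:1 kinetic fit gave kon, koff, Kd and residence time (1/koff); pKd averaged where runs repeated.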

Sequence of human alpha1 nicotinic acetylcholine (nACh) receptor (P02708 21-457): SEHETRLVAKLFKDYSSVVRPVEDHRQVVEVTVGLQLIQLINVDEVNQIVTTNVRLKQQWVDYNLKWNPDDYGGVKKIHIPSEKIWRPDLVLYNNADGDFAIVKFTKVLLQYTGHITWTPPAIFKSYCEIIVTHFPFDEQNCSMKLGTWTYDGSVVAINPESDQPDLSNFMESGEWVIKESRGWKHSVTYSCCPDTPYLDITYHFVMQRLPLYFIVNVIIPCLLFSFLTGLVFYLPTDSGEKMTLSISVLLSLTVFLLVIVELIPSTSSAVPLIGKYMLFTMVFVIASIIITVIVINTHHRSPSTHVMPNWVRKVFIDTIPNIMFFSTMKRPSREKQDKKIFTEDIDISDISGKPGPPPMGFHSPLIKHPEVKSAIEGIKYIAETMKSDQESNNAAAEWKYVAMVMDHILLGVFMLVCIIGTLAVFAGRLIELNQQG
Sequence of human alpha1 nicotinic acetylcholine (nACh) receptor (P11230 24-501 partner): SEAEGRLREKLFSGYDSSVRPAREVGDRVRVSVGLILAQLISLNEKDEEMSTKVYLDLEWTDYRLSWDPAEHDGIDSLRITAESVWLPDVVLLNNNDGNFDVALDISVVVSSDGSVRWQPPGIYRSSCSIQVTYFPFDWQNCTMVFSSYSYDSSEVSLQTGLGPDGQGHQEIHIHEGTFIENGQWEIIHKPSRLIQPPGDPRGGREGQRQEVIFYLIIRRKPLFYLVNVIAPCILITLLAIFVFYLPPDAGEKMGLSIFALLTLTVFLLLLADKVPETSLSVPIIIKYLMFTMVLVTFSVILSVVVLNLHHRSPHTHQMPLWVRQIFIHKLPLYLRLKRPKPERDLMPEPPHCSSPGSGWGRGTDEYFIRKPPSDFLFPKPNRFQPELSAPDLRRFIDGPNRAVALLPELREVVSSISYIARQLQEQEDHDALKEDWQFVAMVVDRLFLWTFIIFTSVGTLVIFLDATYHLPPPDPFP
Sequence of human alpha1 nicotinic acetylcholine (nACh) receptor (Q07001 22-517): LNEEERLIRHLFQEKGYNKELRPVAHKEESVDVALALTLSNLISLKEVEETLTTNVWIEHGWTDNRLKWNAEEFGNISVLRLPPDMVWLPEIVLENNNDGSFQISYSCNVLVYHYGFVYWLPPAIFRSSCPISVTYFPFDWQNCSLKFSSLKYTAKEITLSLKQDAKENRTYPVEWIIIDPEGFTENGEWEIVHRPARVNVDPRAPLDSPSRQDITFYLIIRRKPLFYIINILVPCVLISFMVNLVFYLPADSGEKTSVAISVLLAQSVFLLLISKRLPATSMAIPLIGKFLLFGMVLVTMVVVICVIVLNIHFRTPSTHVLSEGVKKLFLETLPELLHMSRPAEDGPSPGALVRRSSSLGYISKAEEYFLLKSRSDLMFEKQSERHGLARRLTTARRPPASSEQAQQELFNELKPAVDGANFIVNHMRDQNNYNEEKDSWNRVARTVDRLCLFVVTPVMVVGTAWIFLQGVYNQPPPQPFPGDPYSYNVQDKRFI

| Compound | Emax at 100 µM ([2]; read-out: Maximum Response (%)) [%] | IC50 [2] [nM] | pKd of Antibody for ARM Compound of Formula (I) [3] | Emax at 10 µM ([2]; maximum percentage antagonism at maximum concentration tested 10 μM, read-out: Maximum Response (%)) [%] | Emax at 11.11 µM ([2]; maximum percentage antagonism at maximum concentration tested 11.11 μM, read-out: Maximum Response (%)) [%] | EC50 [1] | ADCC Reporter Assay pEC50 [1] | Emax at 33.33 µM ([2]; maximum percentage antagonism at maximum concentration tested 33.33 μM, read-out: Maximum Response (%)) [%] | Emax at 30 µM ([2]; maximum percentage antagonism at maximum concentration tested 30 μM, read-out: Maximum Response (%)) [%] |
| --- | --- | --- | --- | --- | --- | --- | --- | --- | --- |
| CN1C(=O)C[C@H](C(=O)NCCOCCOCCOCCC(=O)N[C@H]2CC[C@@H](C(=O)N[C@@H]3C[C@H](NC(C)(C)C)CC[C@@H]3N3CC[C@H](Nc4ncnc5ccc(C(F)(F)F)cc45)C3=O)CC2)[C@H]1c1cccnc1 [Example 23, (2S,3S)-N-(2-(2-(2-(3-(((1S,4s)-4-(((1R,2S,5R)-5-(tert-Butylamino)-2-((S)-2-oxo-3-((6-(trifluoromethyl)quinazolin-4-yl)amino)pyrrolidin-1-yl)cyclohexyl)carbamoyl)cyclohexyl)amino)-3-oxopropoxy)ethoxy)ethoxy)ethyl)-1-methyl-5-oxo-2-(pyridin-3-yl)pyrrolidine-3-carboxamide] | 50.5 | 85200 | 9.2166 | – | – | 1.12 nM and 2.69 nM and 0.566 nM | – | – | – |
| CC(C)N(C)[C@@H]1CC[C@H](N2CC[C@H](Nc3ncnc4ccc(C(F)(F)F)cc34)C2=O)[C@H](NC(=O)[C@H]2C[C@@H](NC(=O)CCOCCOCCOCCNC(=O)[C@H]3CC(=O)N(C)[C@@H]3c3cccnc3)C2)C1 [Example 24] | 59.5 | 85300 | 9.4425 | – | – | 1.46 nM and 0.358 nM | – | – | – |
| CC(C)N(C)[C@@H]1CC[C@H](N2CC[C@H](Nc3ncnc4ccc(C(F)(F)F)cc34)C2=O)[C@H](NC(=O)C2CCC(NC(=O)CCOCCNC(=O)CCOCCNC(=O)[C@H]3CC(=O)N(C)[C@@H]3c3cccnc3)CC2)C1 (stereo partly drawn) [Example 48] | 77 | 31800 | 8.975 | – | – | – | 9.159 and 9.168 | – | – |
| CC(C)N(C)[C@@H]1CC[C@H](N2CC[C@H](Nc3ncnc4ccc(C(F)(F)F)cc34)C2=O)[C@H](NC(=O)[C@H]2C[C@@H](NC(=O)CCOCCOCCNC(=O)CCNC(=O)[C@H]3CC(=O)N(C)[C@@H]3c3cccnc3)C2)C1 [Example 49, (2S,3S)-N-(3-((2-(2-(3-(((1S,3s)-3-(((1R,2S,5R)-5-(Isopropyl(methyl)amino)-2-((S)-2-oxo-3-((6-(trifluoromethyl)quinazolin-4-yl)amino)pyrrolidin-1-yl)cyclohexyl)carbamoyl)cyclobutyl)amino)-3-oxopropoxy)ethoxy)ethyl)amino)-3-oxopropyl)-1-methyl-5-oxo-2-(pyridin-3-yl)pyrrolidine-3-carboxamide] | 56.7 | 80300 | 9.191 | – | – | 0.845 nM and 0.303 nM | – | – | – |
| CC(C)N(C)[C@@H]1CC[C@H](N2CC[C@H](Nc3ncnc4ccc(C(F)(F)F)cc34)C2=O)[C@H](NC(=O)[C@H]2CC[C@@H](NC(=O)CCCO[C@H]3CC[C@H](NC(=O)CCNC(=O)[C@@H]4CC(=O)N(C)[C@H]4c4cccnc4)CC3)CC2)C1 [Example 52, (2S,3S)-N-(3-(((1R,4S)-4-(4-(((1S,4S)-4-(((1R,2S,5R)-5-(Isopropyl(methyl)amino)-2-((S)-2-oxo-3-((6-(trifluoromethyl)quinazolin-4-yl)amino)pyrrolidin-1-yl)cyclohexyl)carbamoyl)cyclohexyl)amino)-4-oxobutoxy)cyclohexyl)amino)-3-oxopropyl)-1-methyl-5-oxo-2-(pyridin-3-yl)pyrrolidine-3-carboxamide] | – | > 33300 | 9.2545 | – | – | 0.222 nM and 0.294 nM | – | 8.3 | – |
| CC(C)N(C)[C@@H]1CC[C@H](N2CC[C@H](Nc3ncnc4ccc(C(F)(F)F)cc34)C2=O)[C@H](NC(=O)[C@H]2CC[C@H](NC(=O)CCCOC[C@H]3CC[C@@H](COCCNC(=O)[C@H]4CC(=O)N(C)[C@@H]4c4cccnc4)CC3)CC2)C1 [Example 57, (2S,3S)-N-(2-(((1S,4R)-4-((4-(((1R,4R)-4-(((1R,2S,5R)-5-(Isopropyl(methyl)amino)-2-((S)-2-oxo-3-((6-(trifluoromethyl)quinazolin-4-yl)amino)pyrrolidin-1-yl)cyclohexyl)carbamoyl)cyclohexyl)amino)-4-oxobutoxy)methyl)cyclohexyl)methoxy)ethyl)-1-methyl-5-oxo-2-(pyridin-3-yl)pyrrolidine-3-carboxamide] | – | > 30000 | 9.685 | – | – | 1.61 nM and 1.48 nM and 5.07 nM | – | – | 47.6 |

Further lines, with some results ahead:

| Emax at 100 µM ([2]; read-out: Maximum Response (%)) [%] | IC50 [2] [nM] | pKd of Antibody for ARM Compound of Formula (I) [3] | Emax at 10 µM ([2]; maximum percentage antagonism at maximum concentration tested 10 μM, read-out: Maximum Response (%)) [%] | Emax at 11.11 µM ([2]; maximum percentage antagonism at maximum concentration tested 11.11 μM, read-out: Maximum Response (%)) [%] | Compound | EC50 [1] | ADCC Reporter Assay pEC50 [1] | Emax at 33.33 µM ([2]; maximum percentage antagonism at maximum concentration tested 33.33 μM, read-out: Maximum Response (%)) [%] | Emax at 30 µM ([2]; maximum percentage antagonism at maximum concentration tested 30 μM, read-out: Maximum Response (%)) [%] |
| --- | --- | --- | --- | --- | --- | --- | --- | --- | --- |
| 69.9 | 40900 | 9.273 | – | – | CC(C)N(C)[C@@H]1CC[C@H](N2CC[C@H](Nc3ncnc4ccc(C(F)(F)F)cc34)C2=O)[C@H](NC(=O)[C@H]2CC[C@@H](NC(=O)CCOCCOCCOCCNC(=O)[C@H]3CC(=O)N(C)[C@@H]3c3cccnc3)CC2)C1 [Example 28] | 0.251 nM | – | – | – |
| – | > 10000 | 9.3155 | 5.4 | – | CC(C)N(C)[C@@H]1CC[C@H](N2CC[C@H](Nc3ncnc4ccc(C(F)(F)F)cc34)C2=O)[C@H](NC(=O)[C@H]2CC[C@H](NC(=O)CCOCCOCCOCCNC(=O)[C@H]3CC(=O)N(C)[C@@H]3c3cccnc3)CC2)C1 [Example 30] | 7.53 nM | – | – | – |
| 79.2 | 28500 | 9.933 | – | – | CCN1C(=O)C[C@H](C(=O)NCCOCCOCCOCCC(=O)N[C@H]2CC[C@@H](C(=O)N[C@@H]3C[C@H](N(C)C(C)C)CC[C@@H]3N3CC[C@H](Nc4ncnc5ccc(C(F)(F)F)cc45)C3=O)CC2)[C@H]1c1cccnc1 [Example 34] | 1 nM | – | – | – |
| 52.3 | 89200 | 9.785 | – | – | CCN1C(=O)C[C@H](C(=O)NCCOCCOCCOCCC(=O)N[C@H]2CC[C@@H](C(=O)N[C@@H]3C[C@H](NC(C)(C)C)CC[C@@H]3N3CC[C@H](Nc4ncnc5ccc(C(F)(F)F)cc45)C3=O)CC2)[C@H]1c1cccnc1 [Example 35] | 2.51 nM | – | – | – |
| – | > 11100 | 9.531 | – | 10 | CC(C)N(C)[C@@H]1CC[C@H](N2CC[C@H](Nc3ncnc4ccc(C(F)(F)F)cc34)C2=O)[C@H](NC(=O)[C@H]2CC[C@H](NC(=O)CCOC[C@H]3CC[C@H](COCCNC(=O)[C@H]4CC(=O)N(C)[C@@H]4c4cccnc4)CC3)CC2)C1 [Example 53, (2S,3S)-N-(2-(((1R,4S)-4-((3-(((1R,4R)-4-(((1R,2S,5R)-5-(Isopropyl(methyl)amino)-2-((S)-2-oxo-3-((6-(trifluoromethyl)quinazolin-4-yl)amino)pyrrolidin-1-yl)cyclohexyl)carbamoyl)cyclohexyl)amino)-3-oxopropoxy)methyl)cyclohexyl)methoxy)ethyl)-1-methyl-5-oxo-2-(pyridin-3-yl)pyrrolidine-3-carboxamide] | 7.6 nM | – | – | – |
| 67.9 | 29000 | 9.6305 | – | – | CC(C)N(C)[C@@H]1CC[C@H](N2CC[C@H](Nc3ncnc4ccc(C(F)(F)F)cc34)C2=O)[C@H](NC(=O)CCNC(=O)CCCOC[C@H]2CC[C@@H](COCCNC(=O)[C@H]3CC(=O)N(C)[C@@H]3c3cccnc3)CC2)C1 [Example 62] | 0.867 nM | – | – | – |
